Assays:
[1] = system: combinatorial α-synucleinopathy PD mouse model; test: Sporadic PD mouse model, combinatorial PFF and rAAV-αSyn nigral injection, PCiv diet; assay type: in vivo
Protocol: Figure 4 PCiv administration suppresses PFF-induced dopaminergic neurodegeneration, α-synuclein aggregation, and motor dysfunction in vivo. (A) Bradykinesia (slowness of movement) assessed by pole test for control and combinatorial PFF/AAV-αSyn-injected mice with or without PCiv treatment (50 mg PCiv/kg diet for 30 days, n = 5 per group). Control mice are those nigrally injected with PBS and AAV-GFP. (B) Motor coordination of the mice in the experimental group was assessed by an accelerated rotarod test (n = 5 per group). (C) Representative tyrosine hydroxylase (TH) immunohistochemical staining of the ventral midbrains of control and combinatorial α-synucleinopathy-PD mice fed with a PCiv diet (50 mg/kg diet for 30 days) or normal chow diet. (D) Stereological assessment of TH-positive dopaminergic neurons in the substantia nigra pars compacta of the injection side of the indicated mice groups (n = 5 mice per group). (E) Representative immunofluorescence images of pS129-αSyn and TH in the substantia nigra coronal sections of the indicated experimental mice groups. (F) Quantification of relative pS129-αSyn fluorescence intensities in the TH-positive dopamine neurons of the substantia nigra sections from the indicated experimental groups (n = 28 cells from 3 mice per group). The quantified data are expressed as means ± SEMs. Statistical significance was determined by an ANOVA test with Tukey’s post hoc analysis, ** p < 0.01, *** p < 0.001, and **** p < 0.0001. ns = nonsignificant.
All animal experiments were approved by the Ethical Committee of Sungkyunkwan University Animal Care and Use Committee of Gachon University (Approval number: […]2019-06-15-1; GIACUC-R2021006) and were conducted in accordance with all applicable international guidelines. Male C57BL/6N mice (2 months old) were obtained from Orient Bio (Suwon, Korea). The animals were housed in air-controlled rooms with a 12-h dark/light cycle. Mice and rats were provided ad libitum access to diet and water. All efforts were made to minimize animal suffering and the number of animals used in the experiments. A synthetic PCiv diet was supplied to the mice. The PCiv diet administration (50 mg/kg/day for PFF PD mouse models) began on day 0 and was continued for 30 days. Intranigral injection of the rAAV-αSyn and PFF mixture was performed on day 0. Mice brains were prepared for analysis, as described below. To test the therapeutic effects of PCiv, we prepared a diet containing PCiv. To facilitate each mouse consuming 2 mg of PCiv per day, we generated a mixture of 400 mg of PCiv per kg of rodent diet and then supplied it to the mice.
The α-synucleinopathy PD model was created by co-injecting PFF (10 µg; ventral tegmental area: AP, −3.4 mm; ML, −0.5 mm; DV, −4.3 mm) and rAAV-αSyn (AAV serotype 1, 1 µL of titer 5 × 1011 GC/mL; substantia nigra pars compacta: AP, −3.4 mm; ML, −1.3 mm; DV, −4.3 mm) into a 2-month-old C57BL/6N mouse. rAAV-GFP was used as the control. PFF was prepared from pure recombinant human α-synuclein (Proteos, Inc., Kalamazoo, MI, USA) according to a previous report. Before use, sonicated PFFs were evaluated using Western blotting and a functional assay in cortical neuron cultures (pS129-αSyn induction and neurotoxicity). After co-injecting PFF and rAAV-αSyn, PD models were fed a PCiv or normal diet for a month. For stereological analysis, the animals were perfused 1 month after intranigral injection and fixed intracardially with ice-cold PBS. The tissues were post-fixed with 4% paraformaldehyde overnight. The fixed mice brains were cryoprotected in 30% sucrose (wt/vol) in PBS and subsequently processed for immunohistochemistry.
Coronal sections (thickness, 35 µm) of the fixed and cryoprotected brains were cut, including the substantia nigra. […]

[2] = system: 6-OHDA-induced PD mouse model; design: method as in PMID 31689937; settings: cited from earlier work
[3] = PD mice, PCiv diet 50 mg/kg diet for 30 days

Compound	total α-synuclein expression ([1]; PBS+AAV-GFP and PFF+AAV-αSyn injection groups, PCiv diet)	development of motor impairment (pole and rotarod tests) ([1]; PD mice, PCiv diet 50 mg per kg diet, four weeks)	dopaminergic neurons (TH-positive, substantia nigra) [1, 3]	α-synuclein aggregation pathology (pS129-αSyn in TH-positive dopamine neurons) [1, 3]	dopamine neuron viability in control mouse group ([1]; control mice (PBS + AAV-GFP), PCiv diet)	overt toxicity ([1]; in cells and in vivo mouse models)	neuroprotection [2]
C/C=C(\C)C(=O)O[C@H]1[C@H](OC(C)=O)c2c(ccc3ccc(=O)oc23)OC1(C)C (relative stereo) [PCiv, trans-4′-acetyl-3′-tigloylkhellactone]	no alteration	almost completely prevented	marked protection	largely blocked	no effect	did not observe any overt toxicity	–
C/C=C(\C)C(=O)O[C@@H]1c2c(ccc3ccc(=O)oc23)OC(C)(C)[C@H]1OC(C)=O (relative stereo) [PCiii, peucedanocoumarin III]	–	–	–	–	–	–	neuroprotective

Reference: PMC9369442, “Synthetic Peucedanocoumarin IV Prevents α-Synuclein Neurotoxicity in an Animal Model of Parkinson’s Disease” (International Journal of Molecular Sciences, 2022)
